Assay results taken from patent US20100298141A1, “SUBSTITUTED PYRIDINE N-OXIDE HERBICIDES” (E. I. DU PONT DE NEMOURS AND COMPANY, priority 2007, published 2010).

Tests used:
pigweed = test: Test C pre-/postemergence test; assay type: in vivo, Amaranthus retroflexus
Procedure, shortened: (§1)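 Compounds in a non-phytotoxic solvent with surfactant applied preemergence to seeded pots and, at the same time, postemergence to plants 2–18 cm tall (1- to 4-leaf stage). Paddy tests: pots flooded to 3 cm, compound applied into the water, depth held throughout.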

wheat [1] = test: Test A pre-/postemergence greenhouse test; assay type: in vivo, Triticum aestivum; details: for Plant response rating, Wheat: 0 to 100 scale where 0 is no effect and 100 is complete control; for Wheat plant response rating: 0 to 100 scale
Procedure, shortened: (§2)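 Test compounds in non-phytotoxic solvent with surfactant were applied as a preemergence soil spray to seeded loam/sand pots and, concurrently, postemergence to plants at 2–10 cm, one- to two-leaf stage. About ten days in greenhouse, then injury visually rated against untreated controls.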

morningglory [2] = test: Test A pre-/postemergence greenhouse test; assay type: in vivo, Ipomoea spp.; details: for Plant response rating, Morningglory: 0 to 100 scale where 0 is no effect and 100 is complete control; for Morningglory plant response rating: 0 to 100 scale
Procedure, shortened: as §2

soybean = test: Test C pre-/postemergence test; assay type: in vivo, Glycine max
Procedure, shortened: as §1

crabgrass = test: Test A pre-/postemergence greenhouse test; assay type: in vivo, Digitaria sanguinalis; details: for Plant response rating, Crabgrass, Large: 0 to 100 scale where 0 is no effect and 100 is complete control; for Crabgrass, Large plant response rating: 0 to 100 scale
Procedure, shortened: as §2

barnyardgrass = test: Test C flooded paddy test; assay type: in vivo, Echinochloa crus-galli; details: Flood, scale 0 to 100, 0 no effect, 100 complete control, 13 to 15 days
Procedure, shortened: (§3)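 Test compounds are applied straight into paddy water held 3 cm above the soil surface, with that flood maintained for the whole test. After 13 to 15 days in the greenhouse, each species is scored visually relative to controls.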

wheat [3] = test: Test C pre-/postemergence test; assay type: in vivo, Triticum aestivum
Procedure, shortened: as §1

umbrella sedge = test: Test C flooded paddy test; assay type: in vivo, Cyperus difformis; details: Flood, 250 g ai/ha; scale 0 to 100, 0 no effect, 100 complete control; 13 to 15 days
Procedure, shortened: as §3

corn = test: Test A pre-/postemergence greenhouse test; assay type: in vivo, Zea mays; details: for Plant response rating, Corn: 0 to 100 scale where 0 is no effect and 100 is complete control; for Corn plant response rating: 0 to 100 scale
Procedure, shortened: as §2

[4] = tested on: common (oilseed) sunflower; test: Test C pre-/postemergence test; assay type: in vivo, Helianthus annuus
Procedure, shortened: as §1

catchweed bedstraw = test: Test C pre-/postemergence test; assay type: in vivo, Galium aparine
Procedure, shortened: as §1

Italian ryegrass = test: Test C pre-/postemergence test; assay type: in vivo, Lolium multiflorum
Procedure, shortened: as §1

bermudagrass = test: Test C pre-/postemergence test; assay type: in vivo, Cynodon dactylon
Procedure, shortened: as §1

morningglory [5] = test: Test C pre-/postemergence test; assay type: in vivo, Ipomoea coccinea
Procedure, shortened: as §1

Goosegrass = test: Test C pre-/postemergence test; assay type: in vivo, Eleusin indica
Procedure, shortened: as §1

yellow nutsedge = test: Test C pre-/postemergence test; assay type: in vivo, Cyperus esculentus
Procedure, shortened: as §1

giant foxtail = test: Test A pre-/postemergence greenhouse test; assay type: in vivo, Setaria faberi; details: for Plant response rating, Foxtail, Giant: 0 to 100 scale where 0 is no effect and 100 is complete control; for Foxtail, Giant plant response rating: 0 to 100 scale
Procedure, shortened: as §2

[6] = 62 g ai/ha, Preemergence, scale 0 to 100
[7] = 125 g ai/ha, preemergence, scale 0 (no effect) to 100 (complete control)
[8] = Preemergence, 31 g ai/ha, scale 0 to 100 (0 no effect, 100 complete control)
[9] = preemergence, 250 g ai/ha, scale 0 (no effect) to 100 (complete control)
[10] = Postemergence, 500 g ai/ha, 0 is no effect, 100 is complete control
[11] = Preemergence, 125 g ai/ha, 0 no effect, 100 complete control

## Cn1nc(C(F)(F)F)c(C(Cl)S(=O)(=O)c2cccc[n+]2[O-])c1OC(F)F (centres unmarked) [Compound 51]
pigweed; [6]
  Pigweed plant response rating: 100
pigweed; [7]
  Pigweed plant response rating: 100
pigweed; [8]
  Plant response rating, Pigweed: 85
pigweed; [9]
  Pigweed plant response rating: 100
Wheat [1]; Postemergence, 125 g ai/ha
  Plant response rating, Wheat: 40
Wheat [1]; [10]
  Wheat plant response rating: 60
Wheat [1]; [11]
  Wheat plant response rating: 30
Wheat [1]; Preemergence, 500 g ai/ha
  Plant response rating, Wheat: 50
Morningglory [2]; Postemergence, 125 g ai/ha
  Plant response rating, Morningglory: 60
Morningglory [2]; [10]
  Morningglory plant response rating: 60
Morningglory [2]; [11]
  Morningglory plant response rating: 50
Morningglory [2]; Preemergence, 500 g ai/ha
  Plant response rating, Morningglory: 70
soybean; [6]
  Soybean plant response rating: 0
soybean; [7]
  Soybean plant response rating: 0
soybean; [8]
  Plant response rating, Soybean: 0
soybean; [9]
  Soybean plant response rating: 0
crabgrass; Postemergence, 125 g ai/ha
  Plant response rating, Crabgrass, Large: 60
crabgrass; [10]
  Crabgrass, Large plant response rating: 90
crabgrass; [11]
  Crabgrass, Large plant response rating: 70
crabgrass; Preemergence, 500 g ai/ha
  Plant response rating, Crabgrass, Large: 90
barnyardgrass; 62 g ai/ha
  Plant response rating, Barnyardgrass: 0
barnyardgrass; 250 g ai/ha
  Plant response rating, Barnyardgrass: 50
Wheat [3]; [6]
  Wheat plant response rating: 10
Wheat [3]; [7]
  Wheat plant response rating: 20
Wheat [3]; [8]
  Plant response rating, Wheat: 5
Umbrella sedge
  Plant response rating, Sedge, Umbrella: 95
corn; Postemergence, 125 g ai/ha
  Plant response rating, Corn: 0
corn; [10]
  Corn plant response rating: 20
corn; [11]
  Corn plant response rating: 0
corn; Preemergence, 500 g ai/ha
  Plant response rating, Corn: 0
[4]; [6]
  Sunflower plant response rating: 0
[4]; [7]
  Sunflower plant response rating: 0
[4]; [8]
  Plant response rating, Sunflower: 0
[4]; [9]
  Sunflower plant response rating: 0
Catchweed bedstraw; [6]
  Galium plant response rating: 85
Catchweed bedstraw; [7]
  Galium plant response rating: 95
Catchweed bedstraw; [8]
  Plant response rating, Galium: 80
Catchweed bedstraw; [9]
  Galium plant response rating: 95
Italian ryegrass; [6]
  Ryegrass, Italian plant response rating: 30
Italian ryegrass; [7]
  Ryegrass, Italian plant response rating: 80
Italian ryegrass; [8]
  Plant response rating, Ryegrass, Italian: 0
Italian ryegrass; [9]
  Ryegrass, Italian plant response rating: 80
bermudagrass; 62 g ai/ha, Preemergence, scale 0 to 100 (0 no effect, 100 complete control)
  Bermudagrass plant response rating: 100
bermudagrass; [7]
  Bermudagrass plant response rating: 100
bermudagrass; [8]
  Plant response rating, Bermudagrass: 90
bermudagrass; [9]
  Bermudagrass plant response rating: 100
Morningglory [5]; [6]
  Morningglory plant response rating: 100
Morningglory [5]; [7]
  Morningglory plant response rating: 100
Morningglory [5]; [8]
  Plant response rating, Morningglory: 100
Morningglory [5]; [9]
  Morningglory plant response rating: 100
Goosegrass; [6]
  Goosegrass plant response rating: 100
Goosegrass; [7]
  Goosegrass plant response rating: 100
Goosegrass; [8]
  Plant response rating, Goosegrass: 100
Goosegrass; [9]
  Goosegrass plant response rating: 100
Yellow nutsedge; [6]
  Nutsedge, Yellow plant response rating: 40
Yellow nutsedge; [7]
  Nutsedge, Yellow plant response rating: 40
Yellow nutsedge; [8]
  Plant response rating, Nutsedge, Yellow: 0
Yellow nutsedge; [9]
  Nutsedge, Yellow plant response rating: 100
Giant foxtail; Postemergence, 125 g ai/ha
  Plant response rating, Foxtail, Giant: 50
Giant foxtail; [10]
  Foxtail, Giant plant response rating: 90
Giant foxtail; [11]
  Foxtail, Giant plant response rating: 100
Giant foxtail; Preemergence, 500 g ai/ha
  Plant response rating, Foxtail, Giant: 100
